# In US8338622B2, “Heterocyclic compound” (Takeda Pharmaceutical Company Limited, priority 2008, dated 2012):
# Legend:
# Zucker fa/fa rats = assay: Hypoglycemic action in Zucker fa/fa rats (Experimental Example 4A); assay type: in vivo, rat; conditions: 30 mg/kg oral for 2 weeks
# Protocol: A hypoglycemic action of the compound of the present invention was evaluated using Zucker fa/fa rats.
# Male 19-week-old Zucker fa/fa rats (Takeda Pharmaceutical Company Limited) were bred in group on CE-2 solid food (CLEA Japan, Inc.) until 12-week-old, thereafter bred on high-fat diet D06110702 (LSG Corporation) for acclimation under conditions with free access to food. At 19-week-old, the rats were grouped based on the body weight, blood glucose level, glycated hemoglobin level and blood RBP4 level value (6 per group). Thereafter, the test compound (Example 34) was orally administered at a dose of 30 mg/kg (solvent: 0.5% methylcellulose solution (5 mL/kg)) for 2 weeks. After 24 hr of the final administration of the compound, blood samples were collected from the tail vein, and plasma was separated. Using the collected plasma, (1) RBP4 concentration, (2) glycated hemoglobin level and (3) blood glucose level were measured. (1) was quantified according to the protocol described in Experimental Example 3. (2) was measured using Tosoh Corporation automatic glycohemoglobin analyzer (HLC-723 GHbV A1c2.2 or HLC-723G7 GHbV A1c2.2), and (3) was measured using Hitachi full-automatic analyzer (7070 or 7080), respectively.
# A 0.5% methylcellulose solution (5 mL/kg) was orally administered to the control group. […] The results are shown in the following in mean±standard deviation (n=6). In the following Table, glycated hemoglobin change is obtained by subtracting the value before administration from that after administration.
# RBP4 = biological target: T1, RBP4 (Mus musculus, UniProt Q00724); assay: Blood RBP4 lowering action in C57BL/6J mouse, single oral administration; assay type: in vivo; conditions: plasma, mean±SD n=5; for RBP4 (% of initial/Control) 0 hr later: 0 hr value before administration, 50 mg/kg oral; for RBP4 (% of initial/Control) 4 hr later: 4 hr after 50 mg/kg oral; for RBP4 (% of initial/Control) 7 hr later: 7 hr after 50 mg/kg oral; for RBP4 (% of initial/Control) 24 hr later: 24 hr after 50 mg/kg oral
# T1 construct: from tissue; host or cells: plasma of male C57BL/6J mice (Charles River Laboratories Japan Inc.)
# Protocol: A blood RBP4 lowering action of the compound of the present invention was evaluated using C57BL/6J mouse.
# Male 7- to 15-week-old C57BL/6J mice (Charles River Laboratories Japan Inc.) were individually bred for acclimation for 4-6 days under conditions with free access to CE-2 solid food (CLEA Japan, Inc.), and grouped based on the body weight (5 per group). The next day of grouping, blood samples were collected from the orbital venous plexus, and plasma was separated (0 hr value). Thereafter, the test compounds (Examples 1, 13, 15, 16, 17, 27 and 34) were orally administered at a dose of 50 mg/kg (solvent: 0.5% methylcellulose solution (10 mL/kg)). At 4, 7 and 24 hr after administration of the compounds, blood samples were collected from the orbital venous plexus, and plasma was separated. A 0.5% methylcellulose solution (10 mL/kg) was orally administered to the control group.
# The RBP4 level of the collected plasma was measured by ELISA. RBP4 was quantified by the following steps using a rabbit, anti-mouse RBP4 polyclonal antibody (Hokudo Co., Ltd). A 96 well ELISA plate was coated with 50 μg/ml of the antibody (100 μL) and stood at 4° C. overnight. After blocking with BlockAce (DAINIPPON PHARMACEUTICAL CO., LTD.), mouse RBP4 or a sample (100 μL) was added and the plate was stood at room temperature for 2 hr. After washing with PBS-0.5% Tween 20, HRP-labeled anti-RBP4 antibody (prepared by labeling RBP4 polyclonal antibody (Hokudo Co., Ltd) with HRP (DOJINDO LABORATORIES)) was added by 100 μL, and the plate was stood at room temperature for 1 hr. After washing, TMB (Dako Cytomations) was added, and the mixture was stood at room temperature for 20 min to allow color development, and the reaction was quenched with 2N sulfuric acid. Thereafter, the absorbance at A450 nm was measured on a platereader. The amount of change from the initial value of each animal was determined as a relative value from the control group (% of initial/Control) at each time point. The results are shown in the following in mean±standard deviation (n=5).
# human RBP4 = biological target: T2, human RBP4 (Homo sapiens, UniProt P02753); assay: Binding assay by Retinol-RBP4-TTR ELISA (human type ELISA); conditions: retinol 0.5 μM, read-out: human RBP4 binding inhibitory activity (IC50 nM)
# T2 construct: the culture supernatant containing secreted/expressed hRBP4-His was recovered; His tag (His6, read from the HISENU oligo); made in house; host or cells: FreeStyle293 expression system (Invitrogen), secreted into the culture supernatant
# Protocol: The action of the compound of the present invention to inhibit the binding between RBP4, and retinol and TTR was evaluated using the Retinol-RBP4-TTR ELISA (human type ELISA) system shown below.
# The binding assay was performed by an ELISA system (Retinol-RBP4-TTR ELISA) for detecting retinol-RBP4-TTR conjugate by streptavidin-biotin reaction.
# His-tagged human RBP4 used was prepared in the above-mentioned 1C.
# Biotinylated human TTR used was prepared in the above-mentioned 1E.
# Streptavidin (20 μl) (10 μg/ml Streptavidin type II (Wako Pure Chemical Industries, Ltd.), 10 mM Tris-HCl (pH 7.5), 10 mM NaCl) was added to a 384 well black maxisorp plate (Nunc), and the plate was subjected to centrifugation (1000 rpm, 1 min) and coated overnight at 4° C. The plate was washed twice with PBST (PBS, 0.05% Tween 20, 100 μl/well) and blocked with 25% Block Ace (Snow Brand Milk Products Co., Ltd., PBS, 100 μl/well). The plate was subjected to centrifugation (1000 rpm, 1 min) and incubated at room temperature for 4 hr or overnight at 4° C. The plate was washed twice with PBST (PBS, 0.05% Tween 20, 100 μl/well), and biotinylated human TTR (stock solution concentration 1.3 mg/ml) diluted 1000-fold with PBST was added at 20 μl/well. The plate was subjected to centrifugation (1000 rpm, 1 min) and stood still at room temperature for 1.5 hr or overnight at 4° C. The plate was washed 3 times with PEST (100 μl/well), and His-tagged human RBP4 (stock solution concentration 0.96 mg/ml) diluted 4000-fold with a reaction buffer (50 mM Tris-HCl, 150 mM NaCl, 0.005% Tween 20, 1 mM DTT, 0.1% BSA) was added at 10 μl/well. The dilution series (8 doses from 10 mM, 200-fold concentration) of the compound was prepared with DMSO, and 1 μl of each was added to a reaction buffer (200 μl) containing retinol (0.5 μM) (Sigma-Aldrich Co.). A reaction buffer (200 μl) containing retinol and added with DMSO was used as a positive control, and reaction buffer (200 μl) free of retinol and added with DMSO was used as a negative control. Mixed solutions of retinol and the compound were added to the plate at 15 μl/well. The mixture was stirred in a platemixer, subjected to centrifugation (1000 rpm, 1 min) and reacted at room temperature for 2 hr. A 35% Block Ace solution diluted with the reaction buffer was added at 10 μl/well, centrifuged (1000 rpm, 1 min) and reacted at room temperature for 30 min. The plate was washed 3 times with PBST (100 μl/well) and SuperSignal ELISA Femto Maximum Sensitivity Substrate reagent (PIERCE) was added at 30 μl/well, and the luminescence was measured by a platereader (Wallac).
# The binding activity rate of the compound was determined by 100×(test compound value−negative control value)/(positive control value−negative control value). The binding inhibitory activity (IC50) was calculated from the binding activity rate at each compound concentration using a graph drawing software, Prism (GraphPad Software Inc.).
SMILES,RBP4 (% of initial/Control) 0 hr later (RBP4),RBP4 (% of initial/Control) 4 hr later (RBP4),RBP4 (% of initial/Control) 7 hr later (RBP4),RBP4 (% of initial/Control) 24 hr later (RBP4),IC50 (human RBP4) [nM],further results
"O=C(O)CSC1CCN(c2cc(C(F)(F)F)cc(C(F)(F)F)c2)C1 (single isomer, unassigned) [Example 10, ({1-[3,5-bis(trifluoromethyl)phenyl]pyrrolidin-3-yl}sulfanyl)acetic acid]",–,–,–,–,27,–
"O=C(O)CSC1CCN(c2cc(C(F)(F)F)cc(C(F)(F)F)c2)C1 (single isomer, unassigned) [Example 11, ({1-[3,5-bis(trifluoromethyl)phenyl]pyrrolidin-3-yl}sulfanyl)acetic acid]",–,–,–,–,13,–
"O=C(O)CSC1CCN(c2cc(C(F)(F)F)cc(C(F)(F)F)c2)C1 (stereo not shown) [Example 1, ({1-[3,5-bis(trifluoromethyl)phenyl]pyrrolidin-3-yl}sulfanyl)acetic acid]",100 ± 20.2 % of initial/Control,42.5 ± 3.3 % of initial/Control,36.0 ± 3.2 % of initial/Control,73.8 ± 19.3 % of initial/Control,45,–
"O=C(O)C[S+]([O-])C1CCN(c2cc(C(F)(F)F)cc(C(F)(F)F)c2)C1 (stereo not shown) [Example 2, ({1-[3,5-bis(trifluoromethyl)phenyl]pyrrolidin-3-yl}sulfinyl)acetic acid]",–,–,–,–,38,–
"O=C(O)COC1CCN(c2ccc(Cl)c(C(F)(F)F)c2)C1 (stereo not shown) [Example 27, calcium ({1-[4-chloro-3-(trifluoromethyl)phenyl]pyrrolidin-3-yl}oxy)acetate]",100.0 ± 2.1 % of initial/Control,56.2 ± 1.7 % of initial/Control,56.0 ± 1.6 % of initial/Control,59.6 ± 2.1 % of initial/Control,140,–

# Now from value to molecule, other results behind:
RBP4 (% of initial/Control) 0 hr later (RBP4),RBP4 (% of initial/Control) 4 hr later (RBP4),RBP4 (% of initial/Control) 7 hr later (RBP4),RBP4 (% of initial/Control) 24 hr later (RBP4),IC50 (human RBP4) [nM],SMILES,further results
100.0 ± 5.6 % of initial/Control,37.4 ± 2.4 % of initial/Control,34.8 ± 2.6 % of initial/Control,107.4 ± 15.3 % of initial/Control,26,"O=C(O)CCC1CCC(c2cc(C(F)(F)F)cc(C(F)(F)F)c2)O1 (racemic) [Example 34, 3-{5-[3,5-bis(trifluoromethyl)phenyl]tetrahydrofuran-2-yl}propanoic acid]","blood RBP4 concentration (in words) (Zucker fa/fa rats): significant decrease; blood glucose level (in words) (Zucker fa/fa rats): significant decrease; glycated hemoglobin change (in words) (Zucker fa/fa rats): significant decrease; blood glucose level (Zucker fa/fa rats; 24 hr after final administration, mean±SD n=6): 157.2 ± 50.6 mg/dL; glycated hemoglobin change (%) (Zucker fa/fa rats; value after minus before administration, mean±SD n=6): −1.72 ± 0.52%; RBP4 (Zucker fa/fa rats; plasma, 24 hr after final administration, mean±SD n=6): 5.2 ± 0.2 µg/mL"
100.0 ± 10.9 % of initial/Control,54.5 ± 1.2 % of initial/Control,56.5 ± 2.5 % of initial/Control,106.6 ± 3.9 % of initial/Control,26,"O=C(O)CCC1CCN(c2ccc(Cl)c(C(F)(F)F)c2)C1 (stereo not shown) [Example 13, 3-{1-[4-chloro-3-(trifluoromethyl)phenyl]pyrrolidin-3-yl}propanoic acid]",–
–,–,–,–,39,"O=C(O)CCC1CCN(c2cccc(C(F)(F)F)c2Cl)C1 (stereo not shown) [Example 14, 3-{1-[2-chloro-3-(trifluoromethyl)phenyl]pyrrolidin-3-yl}propanoic acid]",–
100.0 ± 4.4 % of initial/Control,51.0 ± 1.4 % of initial/Control,49.0 ± 1.1 % of initial/Control,58.2 ± 2.7 % of initial/Control,320,"O=C(O)CCN1CCN(c2cc(C(F)(F)F)cc(C(F)(F)F)c2)C1=O [Example 15, 3-{3-[3,5-bis(trifluoromethyl)phenyl]-2-oxoimidazolidin-1-yl}propanoic acid]",–
–,–,–,–,210,"O=C(O)CN1CC(c2cc(C(F)(F)F)cc(C(F)(F)F)c2)CC1=O (stereo not shown) [Example 48, {4-[3,5-bis(trifluoromethyl)phenyl]-2-oxopyrrolidin-1-yl}acetic acid]",–
–,–,–,–,81,"O=C(O)CCSC1CCN(c2cc(C(F)(F)F)cc(C(F)(F)F)c2)C1 (stereo not shown) [Example 50, 3-({1-[3,5-bis(trifluoromethyl)phenyl]pyrrolidin-3-yl}sulfanyl)propanoic acid]",–
